Article PMC10606834, “Is the Neuropeptide PEN a Ligand of GPR83?” (International Journal of Molecular Sciences, 2023)

Key:
[1] = system: ERK1/2 phosphorylation in HEK293 cells overexpressing GPR83 or GPR83del; assay: ERK1/2 phosphorylation (immunoblot), GPR83 cells; assay type: cell-based, human; settings: 15 min; for phosphorylation of ERK1/2: 10 µM PEN #1, 100 ng/mL EGF or 200 nM PMA, HEK293 overexpressing GPR83 or GPR83del as well as wild-type HEK293, n = 2 independent experiments
Text: Apart from G protein-mediated second messenger signaling via Ca^2+ and cAMP, GPCR stimulation may also lead to activation of β-arrestin and phosphorylation of extracellular signal-regulated kinases 1/2 (ERK1/2). Immunoblot analysis was employed to investigate ligand-dependent phosphorylation of ERK1/2 in HEK293 cells overexpressing GPR83 or the deletion variant GPR83del as well as in wild-type HEK293 cells.
Figure 4 Ligand-dependent phosphorylation of ERK1/2 and β-arrestin (TANGO) assay. (A) Immunoblot detection of phosphorylated (upper blot) and total (lower blot) ERK1/2 in lysates of HEK293 wild-type cells and in HEK293 cells overexpressing GPR83 or GPR83del. (B) Quantification (mean ± SD of n = 2 independent experiments) of chemiluminescent readout of the immunoblots shown in (A). (C) TANGO assay for ligand-induced β-arrestin activity in HTLA cells overexpressing GPR83 (relative light units, RLU). (D) TANGO assay for ligand-induced β-arrestin activity in HTLA cells overexpressing bradykinin receptor BDKBR2.
4.7. ERK1/2 Phosphorylation Assay
Effects of GPCR ligands on MAPK signaling were assessed with Western blot analysis of lysates from stimulated cells. The ERK1/2 activation assay was performed as described before. Briefly, 50,000 cells per well were seeded onto adherent 6-well plates and cultured until cells were 80% confluent. After incubation with ligands (10 µM PEN #1 and 100 ng/mL EGF or 200 nM PMA in 0.1% FCS/DMEM) for 15 min, cells were lysed using 200 µL/well cell lysis buffer (100 mM Tris-HCl pH 8.8, 1% SDS) and protease inhibitors (cOmplete, Roche, Basel, Switzerland) on ice for one hour. Immunolabeling was realized using the rabbit monoclonal primary antibody anti-phospho-ERK1/2 Thr^202/Tyr^204 (#4370, Cell Signaling Technologies, Danvers, MA, USA, 1:2000), or anti-total ERK1/2 (#05-1152; Millipore, Burlington, VT, USA; 1:2000), respectively. Blots were analyzed using densitometric quantification using Image Lab Software v4.1 (Bio-Rad).

[2] = system: GPR83 and GPR83del (HEK293 and U2OS clones; wild-type cells as comparison); assay: Ligand-dependent cAMP formation; assay type: cell-based, human; settings: 1 µM PEN or 50 µM forskolin, GPR83-overexpressing clones and wild-type HEK293 and U2OS cells, 10 min incubation, LANCE Ultra cAMP kit, TR-FRET competition, duplicate
Protocol: Production of cyclic adenosine monophosphate (cAMP) is a hallmark of GPCRs signaling via the Gs-induced pathway. To investigate the potential of PEN to stimulate cAMP production mediated by GPR83, levels of the second messenger were determined after incubation with PEN of various GPR83-overexpressing clones as well as wild-type HEK293 and U2OS cells.
Figure 3 Analysis of ligand-dependent, GPR83-mediated cAMP production. (A) Wild-type HEK293 and U2OS cells as well as various clones with confirmed overexpression of either GPR83 or the deletion variant GPR83del (both ± HA tag) were incubated with either buffer, 1 µM PEN, or 50 µM forskolin. (B) Selected GPR83-overexpressing HEK293 clones were assayed for cAMP production using different concentrations of PEN. (C) Selected GPR83-overexpressing U2OS clones were assayed for cAMP production using different concentrations of PEN.
To measure intracellular cAMP production, the LANCE Ultra cAMP kit (Perkin Elmer) was used according to the manufacturer’s instructions. The day before the experiment, cells were seeded onto a 96-well plate with approximately 80% confluence. After 16–24 h, the medium was removed, and 100 μL/well of serum-free medium was added, followed by a 3 h incubation. Thereafter, medium was removed, and 40 μL of ligand dissolved in cAMP stimulation buffer was pipetted onto cells, then incubated for 10 min. The ligands used were pipetted in duplicate. For concentration–response curves, serial dilutions were carried out from the stock solutions of 1 mM to create a concentration range from 1 µM to 30 pM. As controls, 4 wells were treated with buffer only (negative control) and 4 wells with 50 μM forskolin (positive control). After a 10 min incubation, 10 μL of a 0.5% Triton-X 100 solution in PBS was added to each well. To lyse cells, the plate was shaken on a Vibramax 100 Shaker (Heidolph, Kelheim, Germany) (750 rpm) at room temperature for 10 min. A 10 μL volume of the cell lysates were transferred into a white 384 well plate (ProxiPlate, PerkinElmer). A 5 μL volume of the Europium-cAMP tracer (1 to 50 dilution of Eu-tracer stock in cAMP detection buffer) was added to each well. Next, 5 μL of the ULight-anti-cAMP solution (1 to 150 dilution of ULight-tracer stock in cAMP detection buffer) was added to each well. After a 1 h incubation period at room temperature in the dark, the TR-FRET signal was measured using an EnVision 2103 Multilabel Reader (Perkin Elmer).

[3] = system: GPR83 and GPR83del, with or without HA tag (HEK293 cells; wild-type HEK293 as comparison); assay: Competitive radioligand binding assay, GPR83; parameters: species or system human; settings: pH 7.4, 2 h; for radioligand binding signal: 100,000 cpm 125I-labelled peptide, wild-type HEK293 and HEK293 expressing full-length or deletion variant GPR83, with or without HA tag
Text: One of the most proven methods for quantitatively analyzing the interaction of biomolecules is the competitive radioligand binding assay. […] To safeguard against possible interference of the added Tyr with ligand–receptor binding, two peptides were created and are as follows: one with the Tyr on the aminoterminal end (Tyr-PEN), and the other with Tyr added on the carboxyterminus (PEN-Tyr). Radiolabeled ^125I-PEN-Tyr and ^125I-Tyr-PEN were then used on wild-type HEK293 cells and HEK293 cells expressing various forms of GPR83 (full-length or deletion variant, with or without HA tag) in competition with different concentrations of natural PEN or Tyr-PEN, ranging from 1 pM to 1 µM.
Figure 5 HEK293 wild-type cells and HEK293 cells overexpressing various forms of GPR83 were used in radioligand binding assays with two different radioactively labeled PEN peptides: [^125I]-Tyr-PEN or [^125I]-PEN-Tyr. (A) Radioligand [^125I]-PEN-Tyr in competition with unlabeled wild-type PEN. (B) Radioligand [^125I]-Tyr-PEN in competition with unlabeled wild-type PEN. (C) Radioligand [^125I]-PEN-Tyr in competition with unlabeled wild-type PEN. (D) Radioligand [^125I]-Tyr-PEN in competition with Tyr-PEN. […]
Two variants of human PENs were utilized for radioiodination in this study: one with a tyrosine added at the aminoterminal end (Tyr-PEN: […]-NH2), and one with an additional tyrosine attached to the carboxyterminal end (PEN-Tyr: […]-NH2). Both were labelled with ^125I using the chloramine-T method. Chloramine-T and sodium metabisulfite solutions were freshly prepared in water. For labelling, 10 µL of peptide (stock 1 mM) with 15 µL of sodium phosphate buffer (0.5 M, pH 7.6) was mixed with 37 MBq carrier-free Na^125I (NEZ033L010MC, Perkin Elmer, Waltham, MA, USA). A 4 μL volume of chloramine T (1 mg/mL) was added to start the reaction, and after 30 s, 4 μL sodium metabisulfite (2 mg/mL) was added to stop the iodination. The labeled radioactive peptide was separated from unlabeled peptide with HPLC purification (Agilent ZORBAX 300 Extend-C18 column) using a gradient from 20–50% acetonitrile (+0.1% TFA) against water (+0.1% TFA) for 20 min. To determine the retention time of the radioactive peptide, 1–2 µL of the reaction mixture was analyzed before the purification run. The fraction containing the radiolabeled peptide peak was then collected, diluted with binding buffer to prevent radioautolysis, aliquoted, and stored at −80 °C.
4.10. Radioligand Binding Assay
For competitive radioligand binding assay, approximately 50,000 cells/well were seeded in a 96-well plate incubated overnight at 37 °C. Next day, cells were incubated in binding buffer (50 mM HEPES pH 7.4, 5 mM MgCl2, 1 mM CaCl2, 0.5% BSA, cOmplete protease inhibitors) containing 100,000 counts per minute of ^125I-labelled peptide, with increasing concentrations of unlabeled peptide. After 2 h of incubation, cells were washed for 2–3 times with ice-cold washing buffer (50 mM Tris-HCl, pH 7.4, 125 mM NaCl, 0.05% BSA) and lysed with 1 N NaOH (80 µL/well). The lysed cells were transferred to vials and measured in a gamma counter (Wallac 1470 Wizard, Perkin Elmer, Waltham, MA, USA). Obtained cpm values were plotted with GraphPad Prism 7, and the data were fitted using nonlinear regression (one site—fit Ki, one site—fit logIC50).

CCCCCCCCCCCCCC(=O)O[C@@H]1[C@@H](C)[C@@]2(O)[C@@H](C=C(CO)C[C@]3(O)C(=O)C(C)=C[C@@H]23)[C@@H]2C(C)(C)[C@]12OC(C)=O [PMA, phorbol-12-myristate-13-acetate, reference compound]
phosphorylation of ERK1/2 [1]: substantially induced phosphorylation of ERK1/2

C=C[C@@]1(C)CC(=O)[C@]2(O)[C@@]3(C)[C@@H](O)CCC(C)(C)[C@@H]3[C@H](O)[C@H](OC(C)=O)[C@@]2(C)O1 [forskolin, reference compound]
cAMP levels [2]: strongly increased cAMP levels
cAMP levels ([2]; listed as Forskolin): strong induction of intracellular cAMP

EGF: positive control, epithelial growth factor (as printed) (NSDSECPLSHDGYCLHDGVCMYIEALDKYACNCVVGYIGERCQYRDLKWWELR; Epidermal growth factor; UniProt P01133 971-1023, looked up)
phosphorylation of ERK1/2, rank of response ([1]; 100 ng/mL EGF, compared with PEN and PMA, n = 2): strongest response
phosphorylation of ERK1/2 [1]: substantially induced phosphorylation of ERK1/2

YAADHDVGSELPPEGVLGALLRV-NH2 [Tyr-PEN, human PEN with a tyrosine added at the aminoterminal end]
concentration-dependent displacement of radioligand ([3]; unlabeled peptide 1 pM to 1 µM versus 125I-PEN-Tyr or 125I-Tyr-PEN, HEK293 wild-type and GPR83 / GPR83del with or without HA tag): neither of these different assay conditions led to a PEN-GPR83 binding signal above background or a concentration-dependent displacement of the radioligand

^125I-PEN-Tyr: PEN-Tyr labelled with 125I using the chloramine-T method
radioligand binding signal [3]: neither of these different assay conditions led to a PEN-GPR83 binding signal above background

^125I-Tyr-PEN: Tyr-PEN labelled with 125I using the chloramine-T method
radioligand binding signal [3]: neither of these different assay conditions led to a PEN-GPR83 binding signal above background
